Source: article PMC5218480 (PLoS ONE, 2017)

Tested on: MV-4-11 cells
Test: Gene expression microarray analysis (Affymetrix PrimeView) and GSEA
Type: cell-based, human
Design: RFU PODN (11730768_x_at) / Fold change /veh PODN (11730768_x_at) / RFU LINC00158 (11744669_a_at) / Fold change /veh LINC00158 (11744669_a_at) / RFU DUSP10 (11751237_a_at) / Fold change /veh DUSP10 (11751237_a_at) / RFU ID3 (11757404_x_at) / Fold change /veh ID3 (11757404_x_at) / RFU PLEKHG5 (11737974_s_at) / Fold change /veh PLEKHG5 (11737974_s_at) / RFU LRRC4B (11730491_at) / Fold change /veh LRRC4B (11730491_at) / RFU GIMAP4 (11747438_a_at) / Fold change /veh GIMAP4 (11747438_a_at) / RFU KRT8 (11758183_x_at) / Fold change /veh KRT8 (11758183_x_at) / RFU CNN1 (11734310_a_at) / Fold change /veh CNN1 (11734310_a_at) / RFU VPS37D (11726825_at) / Fold change /veh VPS37D (11726825_at) / RFU C10orf10 (11716522_x_at) / Fold change /veh C10orf10 (11716522_x_at) / RFU KIR2DL2 /// KIR2DL4 /// KIR2DL5A /// KIR2DL5B /// KIR2DS1 /// KIR2DS2 /// KIR2DS3 /// KIR2DS4 /// KIR3DL3 /// KIR3DL3 /// KIR3DS1 (11738374_at) / Fold change /veh KIR2DL2 /// KIR2DL4 /// KIR2DL5A /// KIR2DL5B /// KIR2DS1 /// KIR2DS2 /// KIR2DS3 /// KIR2DS4 /// KIR3DL3 /// KIR3DL3 /// KIR3DS1 (11738374_at) / RFU C1QL1 (11718748_at) / Fold change /veh C1QL1 (11718748_at) / RFU TMPRSS4 (11747572_a_at) / Fold change /veh TMPRSS4 (11747572_a_at) / RFU HAMP (11756126_x_at) / Fold change /veh HAMP (11756126_x_at) / RFU RNFT2 (11725882_a_at) / Fold change /veh RNFT2 (11725882_a_at) / RFU NR4A2 (11747474_a_at) / Fold change /veh NR4A2 (11747474_a_at) / RFU ABCC12 (11746883_a_at) / Fold change /veh ABCC12 (11746883_a_at) / RFU TMEM136 (11760407_x_at) / Fold change /veh TMEM136 (11760407_x_at) / RFU CLDN22 /// WWC2 (11732394_at) / Fold change /veh CLDN22 /// WWC2 (11732394_at) / RFU HLA-DPB1 (11760878_x_at) / Fold change /veh HLA-DPB1 (11760878_x_at) / RFU SPINT1 (11716480_a_at) / Fold change /veh SPINT1 (11716480_a_at) / RFU GAP43 (11754022_s_at) / Fold change /veh GAP43 (11754022_s_at) / RFU A4GNT (11735810_at) / Fold change /veh A4GNT (11735810_at) / RFU PRB3 (11715151_x_at) / Fold change /veh PRB3 (11715151_x_at) / RFU TUBB4B (11761932_at) / Fold change /veh TUBB4B (11761932_at) / RFU CAPN14 (11732068_a_at) / Fold change /veh CAPN14 (11732068_a_at) / RFU TMCC2 (11721928_a_at) / Fold change /veh TMCC2 (11721928_a_at) / RFU IRGQ (11745062_a_at) / Fold change /veh IRGQ (11745062_a_at) / RFU FAM174B (11720279_a_at) / Fold change /veh FAM174B (11720279_a_at) / RFU TMPRSS4 (11748680_a_at) / Fold change /veh TMPRSS4 (11748680_a_at) / RFU FAM212B (11763350_a_at) / Fold change /veh FAM212B (11763350_a_at) / RFU PLEKHG5 (11743358_a_at) / Fold change /veh PLEKHG5 (11743358_a_at) / RFU ZSCAN30 (11745921_a_at) / Fold change /veh ZSCAN30 (11745921_a_at) / RFU CMKLR1 (11741424_a_at) / Fold change /veh CMKLR1 (11741424_a_at) / RFU LOC101060620 /// MAPK8IP1 (11723275_at) / Fold change /veh LOC101060620 /// MAPK8IP1 (11723275_at) / RFU SPTSSB (11747773_x_at) / Fold change /veh SPTSSB (11747773_x_at) / RFU PRSS12 (11739890_at) / Fold change /veh PRSS12 (11739890_at) / RFU BIN1 (11741810_x_at) / Fold change /veh BIN1 (11741810_x_at) / RFU WNT11 (11732464_a_at) / Fold change /veh WNT11 (11732464_a_at) / RFU C10orf10 (11716521_a_at) / Fold change /veh C10orf10 (11716521_a_at) / RFU C5orf56 (11738089_at) / Fold change /veh C5orf56 (11738089_at) / RFU CYB561 (11721691_x_at) / Fold change /veh CYB561 (11721691_x_at) / RFU ANKRD19P (11752326_a_at) / Fold change /veh ANKRD19P (11752326_a_at) / RFU OR2T12 /// OR2T33 /// OR2T8 (11738714_s_at) / Fold change /veh OR2T12 /// OR2T33 /// OR2T8 (11738714_s_at) / RFU VCAN (11748164_a_at) / Fold change /veh VCAN (11748164_a_at) / RFU JSRP1 (11732532_at) / Fold change /veh JSRP1 (11732532_at) / RFU KRTAP10-11 (11738290_x_at) / Fold change /veh KRTAP10-11 (11738290_x_at) / RFU MYO3A (11730013_a_at) / Fold change /veh MYO3A (11730013_a_at) / RFU EBF3 (11725865_a_at) / Fold change /veh EBF3 (11725865_a_at) / RFU CAMK2N1 (11719241_x_at) / Fold change /veh CAMK2N1 (11719241_x_at) / RFU C5orf56 (11738088_a_at) / Fold change /veh C5orf56 (11738088_a_at) / RFU OLFML3 (11715873_a_at) / Fold change /veh OLFML3 (11715873_a_at) / RFU LOC100653217 /// NTM (11731650_a_at) / Fold change /veh LOC100653217 /// NTM (11731650_a_at) / RFU MAPK11 (11762145_a_at) / Fold change /veh MAPK11 (11762145_a_at) / RFU FIZ1 (11724087_x_at) / Fold change /veh FIZ1 (11724087_x_at) / RFU OASL (11726364_x_at) / Fold change /veh OASL (11726364_x_at) / RFU SOX15 (11748057_x_at) / Fold change /veh SOX15 (11748057_x_at) / RFU CD79A (11719716_a_at) / Fold change /veh CD79A (11719716_a_at) / RFU HIST1H1D (11736915_at) / Fold change /veh HIST1H1D (11736915_at) / RFU CASKIN2 (11723855_a_at) / Fold change /veh CASKIN2 (11723855_a_at) / RFU LOC730098 (11760151_x_at) / Fold change /veh LOC730098 (11760151_x_at) / RFU OR4N2 (11742367_at) / Fold change /veh OR4N2 (11742367_at) / RFU PRRT2 (11749266_a_at) / Fold change /veh PRRT2 (11749266_a_at) / RFU SNX32 (11753110_a_at) / Fold change /veh SNX32 (11753110_a_at) / RFU CDHR5 (11726645_a_at) / Fold change /veh CDHR5 (11726645_a_at) / RFU RCAN1 (11760418_a_at) / Fold change /veh RCAN1 (11760418_a_at) / RFU FAM167A (11723789_a_at) / Fold change /veh FAM167A (11723789_a_at) / RFU FAM26E (11764081_at) / Fold change /veh FAM26E (11764081_at) / RFU ISYNA1 (11749810_s_at) / Fold change /veh ISYNA1 (11749810_s_at) / RFU ACY1 (11761880_at) / Fold change /veh ACY1 (11761880_at) / RFU 11764098_at / Fold change /veh 11764098_at / RFU SAMD14 (11745864_x_at) / Fold change /veh SAMD14 (11745864_x_at) / RFU NPB (11741838_a_at) / Fold change /veh NPB (11741838_a_at) / RFU TMPRSS6 (11731388_a_at) / Fold change /veh TMPRSS6 (11731388_a_at) / RFU KRTAP10-2 (11738614_at) / Fold change /veh KRTAP10-2 (11738614_at) / RFU ARHGAP8 /// PRR5-ARHGAP8 (11727945_x_at) / Fold change /veh ARHGAP8 /// PRR5-ARHGAP8 (11727945_x_at) / RFU KRTAP5-7 /// NADSYN1 (11734609_at) / Fold change /veh KRTAP5-7 /// NADSYN1 (11734609_at) / RFU RASL12 (11751679_a_at) / Fold change /veh RASL12 (11751679_a_at) / RFU CDKN2B (11736163_a_at) / Fold change /veh CDKN2B (11736163_a_at) / RFU PRF1 (11729649_at) / Fold change /veh PRF1 (11729649_at) / RFU, ZNF638 /// ZNF638-IT1 / Fold change vs veh, ZNF638 /// ZNF638-IT1 / RFU, PANK3 / Fold change vs veh, PANK3 / RFU, SH3YL1 / Fold change vs veh, SH3YL1 / RFU, ZEB2 / Fold change vs veh, ZEB2 / RFU, NRIP1 / Fold change vs veh, NRIP1 / RFU, PTTG1IP / Fold change vs veh, PTTG1IP / RFU, CAPN2 / Fold change vs veh, CAPN2 / RFU, MED14 / Fold change vs veh, MED14 / RFU, SNORA58 / Fold change vs veh, SNORA58 / RFU, C1orf63 / Fold change vs veh, C1orf63 / RFU, LRRFIP1 / Fold change vs veh, LRRFIP1 / RFU, NDUFAF7 / Fold change vs veh, NDUFAF7 / RFU, SLC12A2 / Fold change vs veh, SLC12A2 / RFU, IBTK / Fold change vs veh, IBTK / RFU, ESF1 / Fold change vs veh, ESF1 / Fold change vs veh, TMEM50B / RFU, TAOK1 / Fold change vs veh, TAOK1 / RFU, ACBD3 / Fold change vs veh, ACBD3 / RFU, TMA16 / Fold change vs veh, TMA16 / RFU, RWDD3 / Fold change vs veh, RWDD3 / RFU, BCAT1 / Fold change vs veh, BCAT1 / RFU, EDEM3 / Fold change vs veh, EDEM3 / RFU, TMEM33 / Fold change vs veh, TMEM33 / RFU, WDR75 / Fold change vs veh, WDR75 / RFU, AHCTF1 / Fold change vs veh, AHCTF1 / RFU, TFRC / Fold change vs veh, TFRC / RFU, ZDHHC17 / Fold change vs veh, ZDHHC17 / RFU, NOM1 / Fold change vs veh, NOM1 / RFU, ARL8B / Fold change vs veh, ARL8B / RFU, ZBTB11 / Fold change vs veh, ZBTB11 / RFU, TAMM41 / Fold change vs veh, TAMM41 / RFU, KIAA1704 /// LOC100996395 / Fold change vs veh, KIAA1704 /// LOC100996395 / RFU, ING1 / Fold change vs veh, ING1 / RFU, TRMT61B / Fold change vs veh, TRMT61B / RFU, FUBP3 / Fold change vs veh, FUBP3 / RFU, TP53 / Fold change vs veh, TP53 / RFU, TNKS2 / Fold change vs veh, TNKS2 / RFU, ZFP14 / Fold change vs veh, ZFP14 / RFU, ACTR2 / Fold change vs veh, ACTR2 / RFU, PPP3R1 / Fold change vs veh, PPP3R1 / RFU, PIK3R1 / Fold change vs veh, PIK3R1 / RFU, HNRNPA1 / Fold change vs veh, HNRNPA1 / RFU, RNF170 / Fold change vs veh, RNF170 / RFU, ZNF28 / Fold change vs veh, ZNF28 / RFU, RNGTT / Fold change vs veh, RNGTT / RFU, OGT / Fold change vs veh, OGT / RFU, BRD1 / Fold change vs veh, BRD1 / RFU, MARS / Fold change vs veh, MARS / RFU, ZNF655 / Fold change vs veh, ZNF655 / RFU, FAHD1 / Fold change vs veh, FAHD1 / RFU, BDP1 / Fold change vs veh, BDP1 / RFU, LRRCC1 / Fold change vs veh, LRRCC1 / RFU, ARID1A / Fold change vs veh, ARID1A / RFU, ZNF146 / Fold change vs veh, ZNF146 / RFU, ZNF330 / Fold change vs veh, ZNF330 / RFU, GPN3 / Fold change vs veh, GPN3 / RFU, C9orf123 / Fold change vs veh, C9orf123 / RFU, N4BP2L2 / Fold change vs veh, N4BP2L2 / RFU, ARFIP1 / Fold change vs veh, ARFIP1 / RFU, FAM179B / Fold change vs veh, FAM179B / RFU, BCL10 / Fold change vs veh, BCL10 / RFU, UHRF1BP1L / Fold change vs veh, UHRF1BP1L / RFU, BET1 / Fold change vs veh, BET1 / RFU, CNOT2 / Fold change vs veh, CNOT2 / RFU, ZNF268 / Fold change vs veh, ZNF268 / Fold change vs veh, ZNF507 / RFU, DGCR2 / Fold change vs veh, DGCR2 / RFU, WDSUB1 / Fold change vs veh, WDSUB1 / Fold change vs veh, HSP90B1 /// MIR3652 / RFU, ADSS / Fold change vs veh, ADSS / RFU, GK / Fold change vs veh, GK / RFU, ZNF148 / Fold change vs veh, ZNF148 / RFU, TAF9 / Fold change vs veh, TAF9 / RFU, SLC1A5 / Fold change vs veh, SLC1A5 / RFU, SLMO2 / Fold change vs veh, SLMO2 / RFU, ABCC4 / Fold change vs veh, ABCC4 / RFU, LOC101060439 /// RAP1B / Fold change vs veh, LOC101060439 /// RAP1B / RFU, RFX7 / Fold change vs veh, RFX7 / RFU, GTPBP10 / Fold change vs veh, GTPBP10 / RFU, CNEP1R1 / Fold change vs veh, CNEP1R1 / RFU, BIVM-ERCC5 /// ERCC5 / Fold change vs veh, BIVM-ERCC5 /// ERCC5 / RFU, ILF3 / Fold change vs veh, ILF3 / RFU 11762660_at / Fold change /veh 11762660_at / RFU VCAN (11757783_s_at) / Fold change /veh VCAN (11757783_s_at) / RFU DDX43 (11728927_at) / Fold change /veh DDX43 (11728927_at) / RFU KRT8 (11758188_x_at) / Fold change /veh KRT8 (11758188_x_at) / RFU NKD1 (11759106_at) / Fold change /veh NKD1 (11759106_at) / RFU SRD5A1 (11742802_a_at) / Fold change /veh SRD5A1 (11742802_a_at) / RFU TPSAB1 /// TPSB2 (11721975_s_at) / Fold change /veh TPSAB1 /// TPSB2 (11721975_s_at) / RFU GSTM3 (11746129_a_at) / Fold change /veh GSTM3 (11746129_a_at) / RFU IL23R (11737362_x_at) / Fold change /veh IL23R (11737362_x_at) / RFU TMEM51 (11727254_a_at) / Fold change /veh TMEM51 (11727254_a_at) / RFU PIWIL2 (11732686_x_at) / Fold change /veh PIWIL2 (11732686_x_at) / RFU ORM1 (11744905_x_at) / Fold change /veh ORM1 (11744905_x_at) / RFU CCDC152 (11743942_at) / Fold change /veh CCDC152 (11743942_at) / RFU ECM1 (11717891_a_at) / Fold change /veh ECM1 (11717891_a_at) / RFU IL23R (11748794_a_at) / Fold change /veh IL23R (11748794_a_at) / RFU TNFAIP8L3 (11732012_x_at) / Fold change /veh TNFAIP8L3 (11732012_x_at) / RFU MBOAT4 (11741988_at) / Fold change /veh MBOAT4 (11741988_at) / RFU 11764193_at / Fold change /veh 11764193_at / RFU TMEM53 (11763286_at) / Fold change /veh TMEM53 (11763286_at) / RFU MAGEB2 (11727129_at) / Fold change /veh MAGEB2 (11727129_at) / RFU TMEM200A (11744735_a_at) / Fold change /veh TMEM200A (11744735_a_at) / RFU CCDC152 (11751479_a_at) / Fold change /veh CCDC152 (11751479_a_at) / RFU FAM211A (11726209_a_at) / Fold change /veh FAM211A (11726209_a_at) / RFU RGS16 (11746705_a_at) / Fold change /veh RGS16 (11746705_a_at) / RFU VCAN (11755009_s_at) / Fold change /veh VCAN (11755009_s_at) / RFU RHOB (11743442_s_at) / Fold change /veh RHOB (11743442_s_at) / RFU RGS16 (11720943_a_at) / Fold change /veh RGS16 (11720943_a_at) / RFU RGS16 (11720944_at) / Fold change /veh RGS16 (11720944_at) / RFU, VPS4B / Fold change vs veh, VPS4B / RFU, CREB1 / Fold change vs veh, CREB1 / RFU, DNAJC13 / Fold change vs veh, DNAJC13 / RFU, GNAQ / Fold change vs veh, GNAQ / RFU, CDK5R1 / Fold change vs veh, CDK5R1 / RFU, ZRANB3 / Fold change vs veh, ZRANB3 / RFU, CUL4A / Fold change vs veh, CUL4A / RFU, CCNY / Fold change vs veh, CCNY / RFU, UFL1 / Fold change vs veh, UFL1 / RFU, COG3 / Fold change vs veh, COG3 / RFU, DIAPH2 / Fold change vs veh, DIAPH2 / RFU, SKA2 / Fold change vs veh, SKA2 / RFU, AFF3 / Fold change vs veh, AFF3 / RFU, LMF1 / Fold change vs veh, LMF1 / RFU, IPO11 / Fold change vs veh, IPO11 / RFU, DFFB / Fold change vs veh, DFFB / RFU, FOXP1 / Fold change vs veh, FOXP1 / RFU, CARD8 / Fold change vs veh, CARD8 / RFU, STRN3 / Fold change vs veh, STRN3 / RFU, ADK / Fold change vs veh, ADK / RFU, RASSF2 / Fold change vs veh, RASSF2 / RFU, WIPF1 / Fold change vs veh, WIPF1 / RFU, LARP1B / Fold change vs veh, LARP1B / RFU, RASA1 / Fold change vs veh, RASA1 / RFU, RB1 / Fold change vs veh, RB1 / RFU, PPFIA1 / Fold change vs veh, PPFIA1 / RFU, MAT2A / Fold change vs veh, MAT2A / RFU, CCT5 / Fold change vs veh, CCT5 / RFU, WDR92 / Fold change vs veh, WDR92 / RFU, CUX1 / Fold change vs veh, CUX1 / RFU, TTC7A / Fold change vs veh, TTC7A / RFU, TMEM135 / Fold change vs veh, TMEM135 / RFU, DEPTOR / Fold change vs veh, DEPTOR / RFU, CPM / Fold change vs veh, CPM / RFU, DNAJB6 / Fold change vs veh, DNAJB6 / RFU, CACNA2D3 / Fold change vs veh, CACNA2D3 / RFU, DTX4 / Fold change vs veh, DTX4 / RFU, TFCP2 / Fold change vs veh, TFCP2 / RFU, GMCL1 /// GMCL1P1 / Fold change vs veh, GMCL1 /// GMCL1P1 / RFU, AEBP2 / Fold change vs veh, AEBP2 / RFU, SNHG1 /// SNORD22 /// SNORD25 /// SNORD26 /// SNORD27 /// SNORD28 /// SNORD29 /// SNORD31 / Fold change vs veh, SNHG1 /// SNORD22 /// SNORD25 /// SNORD26 /// SNORD27 /// SNORD28 /// SNORD29 /// SNORD31 / Fold change (Aza/veh), C12orf56 (ProbeSet 11735607_a_at) / Fold change (ACY-1035/veh), C12orf56 (ProbeSet 11735607_a_at) / Fold change (Aza/veh), FGFR1OP (ProbeSet 11751329_s_at) / Fold change (ACY-1035/veh), FGFR1OP (ProbeSet 11751329_s_at) / Fold change (Aza/veh), VPS36 (ProbeSet 11739960_a_at) / Fold change (ACY-1035/veh), VPS36 (ProbeSet 11739960_a_at) / RFU SYPL1 (11715823_x_at) / Fold change /veh SYPL1 (11715823_x_at) / RFU IGFBP7 (11715501_s_at) / Fold change /veh IGFBP7 (11715501_s_at) / RFU REEP3 (11722064_at) / Fold change /veh REEP3 (11722064_at) / RFU IGLL1 (11728026_x_at) / Fold change /veh IGLL1 (11728026_x_at): dose or concentration left out as unconfirmed
Conditions: MV-4-11 cells, 48 hours

**Q.** For `Nc1ccc(-c2cccs2)cc1NC(=O)c1ccc2c(c1)cc(C1CC1)n2CCN1CCOCC1` [ACY-1035], which “RFU PRF1 (11729649_at)” value is on record?
**A.** Its value is 18.67 RFU.
